Laboratory results as given in patent US20140199760A1, “PLANTS HAVING ENHANCED ABIOTIC STRESS RESISTANCE” (UNIVERSITY OF TORONTO, priority 2011, published 2014).

Legend:
corn (B73 cultivar) = assay: Drought treatment of corn with BRZ added to soil; water loss per final shoot dry weight; format: in vivo
From the text: (§1) FIG. 2. (A) Soil water content of wild-type Columbia (red), era1-2 (green), and line cyp85a2 (blue) during a drought treatment. […] Error bars represent standard error (n=8). (B) Water loss during the first 9 days of drought treatment divided by the final shoot dry weight (SDW) in wild-type Columbia, era1-2, and line cyp85a2. Error bars represent standard error (n=6). (C) Cold stress treatment. […]
(§2) Soil (20:20:20), prepared that day, was consistently weighed into pots (typically 140 g) and covered with a plastic wrap (GLAD Press'n Seal® Wrap) that had been punctured with a small hole in the centre. […] This was typically done by withholding water for 9 days after which shoot biomass was harvested and fresh weight was determined. Shoots were then dried at 60 C for 3 days and dry weight was determined. […]
(§3) The observation that a deficiency in endogenous BL in cyp85a2 enables drought resistance to Arabidopsis prompted the hypothesis that a similar mechanism might exist in other plant species, such as corn, soybean, and canola. […] Immediately […] the start of the experiment, daily measurements of water use were monitored to quantify the rate of water loss. […]

canola (Westar cultivar) = assay: Drought treatment of canola with BRZ added to soil; water loss per final shoot dry weight; format: in vivo
[1] = test system: soybean (OAC Wallace cultivar); assay: Drought treatment of soybean with BRZ added to soil; water loss per final shoot dry weight; format: in vivo
From the text: as §1, §2, §3

bean crop = details: applied brassinolide; cited from earlier work
[2] = 10 μM final concentration in soil, root uptake, 4 day drought, vs untreated controls

| Compound | water use efficiency improved (corn (B73 cultivar); 20 μM final concentration in soil, root uptake, 3.5 day drought, vs untreated controls) [%] | water loss per unit of shoot weight than that of the untreated controls (corn (B73 cultivar); 20 μM final, drought, P<0.05) | water use efficiency improved (canola (Westar cultivar); [2]) [%] | water loss per unit of shoot weight than that of the untreated controls (canola (Westar cultivar); 10 μM final, drought, P<0.05) | water use efficiency improved [1, 2] [%] | water loss per unit of shoot weight than that of the untreated controls ([1]; 10 μM final, drought, P<0.05) | increase bean crop yield (bean crop) |
| --- | --- | --- | --- | --- | --- | --- | --- |
| CC(O)(c1ccccc1)C(Cc1ccc(Cl)cc1)n1cncn1 (stereo not shown) [BRZ, Brassinazole] | 28 | significantly less | 15 | significantly less | 14 | significantly less | – |
| CC(C)[C@H](C)[C@@H](O)[C@H](O)[C@@H](C)[C@H]1CC[C@H]2[C@@H]3COC(=O)[C@H]4C[C@H](O)[C@H](O)C[C@]4(C)[C@H]3CC[C@]12C [brassinolide, Brassinolide] | – | – | – | – | – | – | approximately 45% |
